Test [1] concerns the target T1, AtSOT18 (Arabidopsis thaliana, UniProt Q9C9C9).
T1 construct: gene SOT18
T1 sequence (Q9C9C9 1-350): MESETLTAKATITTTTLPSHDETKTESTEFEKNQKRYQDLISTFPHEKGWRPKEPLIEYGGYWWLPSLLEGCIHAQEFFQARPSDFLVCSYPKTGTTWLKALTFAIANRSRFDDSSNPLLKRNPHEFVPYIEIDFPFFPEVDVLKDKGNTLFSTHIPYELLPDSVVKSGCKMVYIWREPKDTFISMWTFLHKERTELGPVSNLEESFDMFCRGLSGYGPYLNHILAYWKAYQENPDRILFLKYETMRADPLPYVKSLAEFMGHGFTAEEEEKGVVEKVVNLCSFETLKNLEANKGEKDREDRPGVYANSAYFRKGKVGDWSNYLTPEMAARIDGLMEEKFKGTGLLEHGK
Description: sulphotransferase activity of purified enzyme, HPLC at […] nm. The test is classed as biochemical.

Test [2] has as its target T1, AtSOT18. As to the kind of experiment: two-dimensional enzyme kinetic titration (HPLC), non-linear fit. The test is classed as biochemical.
The target in test [3] is T2, AtSOT18 (Arabidopsis thaliana, UniProt Q9C9C9).
T2 construct: gene SOT18; residues 26–347 in the model
T2 sequence (Q9C9C9 26-347): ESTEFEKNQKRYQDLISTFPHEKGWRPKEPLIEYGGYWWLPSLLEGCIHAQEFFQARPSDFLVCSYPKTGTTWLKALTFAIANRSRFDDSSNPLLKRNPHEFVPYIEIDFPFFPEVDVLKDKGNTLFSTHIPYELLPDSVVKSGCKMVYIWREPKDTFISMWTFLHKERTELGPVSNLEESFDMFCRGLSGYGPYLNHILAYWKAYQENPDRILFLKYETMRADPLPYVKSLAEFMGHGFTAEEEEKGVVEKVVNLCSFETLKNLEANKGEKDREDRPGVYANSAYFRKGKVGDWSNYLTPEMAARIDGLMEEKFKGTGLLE
Description: X-ray crystal structure of ternary complex ([…] Å). The test is classed as binding.

In test [4] the target is T1, AtSOT18. As to the kind of experiment: sulphotransferase activity of purified enzyme, HPLC at […] nm. The test is classed as biochemical. This is another data set of the same source.
The target in test [5] is T2, AtSOT18. As to the kind of experiment: X-ray crystal structure ([…] Å), plus competitive inhibition kinetics against PAPS. The test is classed as biochemical.
The target in test [6] is T1, AtSOT18. As to the kind of experiment: sulphotransferase activity of purified enzyme, HPLC at […] nm. The test is classed as biochemical. This is another data set of the same source.
Test [7] concerns the target T1, AtSOT18. Described as above. The test is classed as biochemical. The source holds these as a separate data set.

The Kd is the concentration at which binding is half-saturated. Read a high Kd as a looser complex. A word on the Ki: it is a measure of affinity in units of concentration, obtained from inhibition or displacement.

`CSCCC/C(=N/O)S[C@@H]1O[C@H](CO)[C@@H](O)[C@H](O)[C@H]1O` [3MTP, ds-3MTP]: the “3 MTP” value in test [1] is 1624 ± 122 pkatal mg^−1.
Compound `Nc1ncnc2c1ncn2[C@@H]1O[C@H](COP(=O)(O)OS(=O)(=O)O)[C@@H](OP(=O)(O)O)[C@H]1O` [PAPS, 3′-phosphoadenosine 5′-phosphosulphate] showed a Kd in test [2] of 4.2 ± 2.6 µM.
Take `C=CCC(=NOS(=O)(=O)O)S[C@@H]1O[C@H](CO)[C@@H](O)[C@H](O)[C@H]1O` (stereo in doubt) [sinigrin]: the “X-ray crystal structure of ternary complex (1.92 Å)” value in test [3] was “together with the product Gl sinigrin (PDB ID: 5MEX) were solved”.
Regarding `OC[C@H]1O[C@@H](S/C(Cc2c[nH]c3ccccc23)=N\O)[C@H](O)[C@@H](O)[C@@H]1O` [I3M, ds-I3M], the I3M in test [4] is on record as 501 ± 46 pkatal mg^−1.
Turning to `Nc1ncnc2c1ncn2[C@@H]1O[C@H](COP(=O)(O)O)[C@@H](OP(=O)(O)O)[C@H]1O` [PAP, 3′-phosphoadenosine 5′-phosphate], the Ki in test [5] worked out at 3 ± 1.7 µM.
In test [6], `CSCCCCCCCC/C(=N/O)S[C@@H]1O[C@H](CO)[C@@H](O)[C@H](O)[C@H]1O` [8MTO, ds-8MTO] gave an 8MTO of 1618 ± 272 pkatal mg^−1.
Consider `C=CC/C(=N/O)S[C@@H]1O[C@H](CO)[C@@H](O)[C@H](O)[C@H]1O` [Sinigrin (ds form), ds-Gl sinigrin], for which the Sinigrin in test [7] stood at 879 ± 410 pkatal mg^−1.

The record behind these values is paper PMC5482895, “Structural and biochemical studies of sulphotransferase 18 from Arabidopsis thaliana explain its substrate specificity and reaction mechanism” (Scientific Reports, 2017).
